Data on two compounds can be found in US10179142B2, “Treatment and/or prevention of bone metastasis” (The Arizona Board of Regents on behalf of The University of …, priority 2013, dated 2019).

“Also recorded” adds a separate entry of the source.

Holding throughout (type): cell-based, human
In experiment [1] the test system is active Rac1 in PC-3 cells. The experiment is described as follows: Rac1 activation assay (GLISA). The note with it: 1 μM, 4 hours, then 50 ng/ml hHGF for 2 minutes. As to the method:
Rac1 activity was determined by the colorimetric GLISA Kit BK128 (Cytoskeleton, Inc, Denver, Co). Briefly, PC-3 (PC-3, pKLO.1, GS-1 and GS-2 cells), DU 145 and LNCap cells were grown to 75% confluence and then serum starved for 48 hours. Drugs were then added for 4 hours and cells were stimulated with 50 ng/ml hHGF (Gibco Life Sciences, Carlsbad, Ca) for 2 minutes. Cells were then lysed and harvested as described in the kit-supplied protocol. Protein concentration was normalized to 1.0 g/l. Plates were read in an absorbance spectrophotometer at 490 nm at 24° C. with 5 s medium orbital shaking. Data were analyzed as described in the supplied protocol. The results represent an average of three independent experiments, each run in duplicates.
A cellular screen of all hit compounds was conducted using the GLISA Rac1 activation kit. Briefly, PC-3 cells were drugged for 4 hours at 1 μM concentration with the selected compounds. Cells were then stimulated with 50 ng/ml of hHGF for 2 minutes. […] The isovolume of Tiam-1 PH domain (PDB 1FOE) was generated using GRID for the H-bond acceptor (−3.6 kcal/mol), the H-bond donor (−7.3 kcal/mol) and hydrophobic (−2.5 kcal/mol) probes. The critical residues are labeled around the isovolume surfaces. The dash lines represent hydrogen bonds between protein and inhibitors. […]

Experiment [2] relates to PC-3 cells. As to the kind of experiment: Migration wound closure assay. The note with it: for migration / motility (wound healing): prostate cancer cells, concentration not given. How it is done: PC-3, DU145 and LNCaP cells were grown in six-well plates in the presence of 10% FBS. Once the cells formed a monolayer, near confluency a wound was done manually with a sterile […] pipette tip in the center of each well. Cells were treated with vehicle alone (DMSO) or 10 μM of compound IV and were grown in the presence of 2% FBS. After 18 hours, the migrating cells were photographed. The wound closure was quantified by measuring the distance between the two sides of the wound. The results represent an average of two independent experiments, each run in triplicates.
(§1) As reported previously, inhibition of Tiam-1 and subsequent inactivation of downstream signaling proteins leads to reduced actin cytoskeleton rearrangements resulting in decreased cell motility. […] FIG. 4, Panel A, A wound channel was introduced near-to-confluent non-treated or treated PC-3 cells with 10 μM V pKLO1 mock-transfection control cells, and shRNA cell line 1.2 (GS-1). […] FIG. 4, Panel B, PC-3 cells and Tiam-1 shRNA cell line 1.2 (shRNA 1.2) were treated as indicated, then stimulated with 20% FBS for 20 minutes to induce lamellipodia formation and stained with rhodamin phalloidin. Individual lamellipodia were counted in a minimum of 10 cells in each respective group and statistical analysis was performed using a Student's t-test. […] FIG. 4, Panel C, pKLO1 PC-3 cells, pKLO1 treated with 10 μM compound V and shRNA 1.2 cells were allowed to invade through Matrigel-coated transwell plates. Invading cells were stained after 12 hours and counted at 20× power (left side). […] In order to test our hypothesis, cells were stained with rhodamin phalloidin and then analyzed for actin/cytoskeleton formations, such as lamellipodia. […] Thus, the observed reduction in cellular motility in compound V treated cells and Tiam-1 silenced cells may be the result of f-actin disruption and reduced frequencies of lamellipodia formation. We next tested whether the compound of Formula V affected invasion of PC-3 through Matrigel-coated transwells.

Experiment [3] deals with PC-3 cells. As to the kind of experiment: Lamellipodia forming assay. How it is done: Glass coverslips were sterilized with 100% EtOH and placed in 6-well plates. PC-3 cells, pKLO.1, GS-1 and GS-2 cells were plated at 3000 cells/well and allowed to adhere overnight. Cells where then serum starved for 48 hours, then treated with the indicated drug for 12 hours, and stimulated with 20% FBS for 30 minutes. Coverslips were then removed from the plates, washed twice with cold PBS, and fixed with 3.7% paraformaldehyde solution in PBS for 10 minutes. Cells were then permeabilized using 0.1% Triton X-100 for 5 minutes. Cells were stained with rhodamine phalloidin (Invitrogen, Carlsbad, Calif.) for 20 minutes using the supplied protocol. Coverslips were then air-dried and mounted using ProLong Gold with DAPI (Invitrogen, Carlsbad, Calif.) and stored at 4° C. Cells were visualized at 40× using Olympus Bx-50 microscope with the CellSens imaging software. Individual lamellipodia were counted in a minimum of 10 cells in each respective group and statistical analysis was done using a Student's t-test.
As reported previously, inhibition of Tiam-1 and subsequent inactivation of downstream signaling proteins leads to reduced actin cytoskeleton rearrangements resulting in decreased cell motility. […] FIG. 4, Panel A, A wound channel was introduced near-to-confluent non-treated or treated PC-3 cells with 10 μM V pKLO1 mock-transfection control cells, and shRNA cell line 1.2 (GS-1). […] FIG. 4, Panel B, PC-3 cells and Tiam-1 shRNA cell line 1.2 (shRNA 1.2) were treated as indicated, then stimulated with 20% FBS for 20 minutes to induce lamellipodia formation and stained with rhodamin phalloidin. Individual lamellipodia were counted in a minimum of 10 cells in each respective group and statistical analysis was performed using a Student's t-test. […] Invading cells were stained after 12 hours and counted at 20× power (left side). […] In order to test our hypothesis, cells were stained with rhodamin phalloidin and then analyzed for actin/cytoskeleton formations, such as lamellipodia. […]

In experiment [4] the test system is PC-3 cells. The experiment is described as follows: Matrigel invasion assay. The note with it: for invasion: prostate cancer cells, concentration not given. How it is done:
PC-3 cells were pre-treated with DMSO vehicle control or with drug for 4 hours in T-25 flasks. Thereafter, 50,000 cells were then plated into the upper chamber that has been pre-coated with Matrigel (BD Sciences, San Jose, Ca) in the presence of drug or DMSO and serum-free media. The bottom well contained complete media including 10% FBS and 0.5% BSA as chemoattractants. After 24 hours, the upper chambers were removed, and any remaining cells within the insert were wiped with a cotton swab. Invading cells were then stained with 2% crystal violet in 20% methanol. Cells were then counted using a Zeiss stereomicroscope at 20× power. 10 random fields were counted. The results represent an average of two independent experiments, each run in triplicates.
as §1, with “We next tested whether the compound of Formula V affected invasion of PC-3 through Matrigel-coated transwells.” left out

A further experiment relates to prostate cancer cells. As to the kind of experiment: Colony formation (FIG. 4, cell line not given). As to the method:
PC-3, LNCaP and DU145 cells were plated at 1000 cells/well into standard 6-well plates (3.5 cm) in the presence of complete media. The next day cells were drugged at increasing concentrations ranging from 1 to 50 μM in triplicate wells. Cells were viewed twice weekly to check for colony growth and confluence. Media and respective drugs were carefully replaced every three days. At day 12, media was aspirated and resulted colonies were stained with crystal violet (0.5% w/v) dissolved in ethanol for one minute, washed with water, and air dried as already described in reference. The resulting colonies were counted utilizing an Optronix Colony counter using ColCount software (Oxford Optronix Ltd, UK). The results represent an average of two independent experiments, each run in triplicates.

Where [5] appears, read: prostate cancer cells, concentration not given.

`Cc1ccc(-n2cc(-c3cccs3)nc2SCc2n[nH]c(=S)n2Cc2ccccc2)cc1` [compound V]: in experiment [1], the “reduction of active Rac1” value was “most pronounced and significant reduction of active Rac1”. Further, the wound closure entry in the experiment with PC-3 cells [2] (PC-3 cells, 10 μM, after 18 hours) is listed as “significant inability to close a wound”. Further, in the experiment with PC-3 cells [2], the “migration / motility (wound healing)” value was “inhibits; also recorded: reduce migration”. Further, the lamellipodia formation entry in the experiment with PC-3 cells [3] (PC-3 cells, 10 μM, stimulation with 20% FBS) is recorded as “significantly reduced the frequency of lamellipodia formation”; in the experiment on PC-3 cells [3] (setting [5]), “inhibits; also recorded: reduce lamellipodia formation”. The “invasion through Matrigel-coated transwells” value with PC-3 cells [4] (PC-3 cells, 10 μM) is given as “significantly reduced amount of invading cells”. In addition, the invasion result in the experiment with PC-3 cells [4] was “inhibits; also recorded: reduce invasion”. In addition, the colony formation entry in the experiment on prostate cancer cells is “inhibits”.
For `c1ccc(Cn2nnc3c(Sc4nnc(-c5ccncc5)o4)ncnc32)cc1` [VI], the “reduction of active Rac1” value in experiment [1] was “most pronounced and significant reduction of active Rac1”. In the experiment on PC-3 cells [2], the “migration / motility (wound healing)” value was “inhibits; also recorded: reduce migration”. Besides, the lamellipodia formation result in the experiment with PC-3 cells [3] (setting [5]) is given as “inhibits; also recorded: reduce lamellipodia formation”. Also, the invasion entry in the experiment on PC-3 cells [4] is “inhibits; also recorded: reduce invasion”. Also, the colony formation entry with prostate cancer cells is “inhibits”.
